Here are results for seven compounds from US20090270452A1, “USE OF SOLUBLE EPOXIDE HYDROLASE INHIBITORS IN THE TREATMENT OF SMOOTH MUSCLE DISORDERS” (Arete Therapeutics, Inc., priority 2008, published 2009).

In experiment [1] the test system is rat corpus cavernosual strips. To be noted: cited from earlier work; for phenylephrine (PE) induced contraction of the cavernosual strips: preincubation with the inhibitor.
Experiment [2] deals with rabbit corpus cavernosum smooth muscle strips. The experiment is described as follows: Relaxation of isolated rabbit corpus cavernosum smooth muscle strips (pressure transducer). The experiment is classed as cell-based. Particulars: 10 minutes. Here is the method: A study was performed using freshly isolated rabbit corpus cavernosum smooth muscle strips attached to a pressure transducer in a temperature controlled bath, to evaluate the efficacy of 1-adamantyl-3-(1-(methylsulfonyl)piperidin-4-yl)urea (Compound 1) for the treatment of erectile dysfunction.
The isolated rabbit corpus cavernosum strips were exposed to Compound 1 and/or 14,15-epoxyeicosatrienoic acid (14,15-EET) at 1 μM or 10 μM concentrations for 10 minutes. The relaxation of each strip was measured by pressure transduction. The percent relaxation was determined relative to a control strip incubated with sodium nitroprusside (SNP) of the formula Na2[Fe(CN)5NO].2H2O, SNP is a compound that serves as a source of nitric oxide, a potent peripheral vasodilator. All experimental conditions were done in duplicate.

In experiment [3] the test system is rat mesenteric arteries. Description: Vasorelaxation of rat mesenteric arteries pre-contracted with U46619 or high KCl (myograph). The experiment is classed as cell-based. Here is the method: Additional experiments were performed wherein the pre-contraction of the mesenteric arteries was induced by pre-incubation with either 0.1-1.0 μM U46619 (9,11-dideoxy-9α,11α-methanoepoxy Prostaglandin F2α, […]). The pre-contracted arteries were exposed to 2 μM, 10 μM, 50 μM, 100 μM, 500 μM or 1000 μM of Compound 2 and the level of relaxation was measured by myograph. […] The amount of relaxation induced by Compound 2 was consistent between the vessels pre-contracted by U46619 and high KCl.

Experiment [4] has as its system rat arteries. The experiment is described as follows: Ach-induced relaxation of isolated arteries from angiotensin II infused rats after in vitro pre-incubation (myograph). Particulars: arteries of ANG II infused rats, pre-incubation with 100 μM compound for 90 minutes; 2% without compound. The experiment is classed as cell-based. Here is the method: The efficacy of 1-(1-nicotinoylpiperidin-4-yl)-3-(4-(trifluoromethoxy)phenyl)urea (Compound 2) and 1-adamantyl-3-(1-acetylpiperidin-4-yl)urea (Compound 3) to effect vasorelaxation of rat arteries in vitro and in vivo was examined. Rats were infused with angiotensin II (ANG II) for 4 weeks resulting in a reduced vasorelaxation response to acetylcholine (Ach), a neurotransmitter known to cause endothelium-dependent vasodilation of arteries. Ach-induced relaxation was measured by myograph.

For another experiment, the system named is arteries from SHR. Description: Aortic relaxation of isolated arteries from spontaneously hypertensive rats (SHR) to Ach or SNP after pre-incubation (myograph). The experiment is classed as cell-based, rat. Particulars: pre-incubation with 100 μM compound for 90 minutes.
Experiment [5] relates to rat arteries. Description: Ach-induced relaxation of arteries from angiotensin II rats co-treated in vivo (myograph). Particulars: ANG II rats. As for the experimental part:
Additionally, in vivo attenuation of the effects of ANG II by Compound 2 or Compound 3 was examined. Rats were administered ANG II for 2 weeks and co-administered ANG II and either 10 mg of Compound 2 once a day by oral gavage or 30 mg of Compound 3 per day dose in drinking water for 2 weeks. Ach induced relaxation was measured by myograph.

Experiment [6] has as its system rat mesenteric arteries. The experiment is described as follows: Direct vasorelaxation of rat mesenteric arteries with intact or denuded endothelium (wired myograph). The class given is cell-based. As for the experimental part:
The efficacy of the 1-(1-nicotinoylpiperidin-4-yl)-3-(4-(trifluoromethoxy)phenyl)urea (Compound 2) to directly effect vasorelaxation of rat mesenteric arteries was examined. Rat mesenteric arteries with intact and denuded endothelium were isolated under microscope. Both intact and denuded arteries were exposed to various concentrations of Compound 2 (2 μM, 10 μM, 50 μM, 100 μM, 500 μM or 1000 μM) and the amount of relaxation was measured by a wired myograph.

In the case of `CCCCCCCCCCCCNC(=O)NC1CCCCC1` [1-cyclodexy-3-dodecyl-urea], the “phenylephrine (PE) induced contraction of the cavernosual strips” value in experiment [1] is “attenuated”.

Turning to epoxyeicosatrienoic acids [EETs], the EC50 in experiment [1] (normal, old and diabetic rat corpus cavernosual strips, read-out: apparent EC50 of relaxation) was 10 nM. The Emax of relaxation in experiment [1] (normal, old and diabetic rat strips, depending on the system) is given as 30-70%.

As to `CCCCCC1OC1CC=CCC=CCC=CCCCC(=O)O` (stereo not shown) [14,15-EET, 14,15-epoxyeicosatrienoic acid, reference compound], the “relaxation of corpus cavernosum strip” value is “no effect” in experiment [2] (14,15-EET alone, 1 μM) and 7% in experiment [2] (14,15-EET alone, 10 μM, in one of the two experiments). For the same compound, the “EET-induced vasorelaxation in vessels precontracted with high KCl” value in the experiment with rat mesenteric arteries [3] (pre-contracted with high KCl (100 mM per FIG. 3A)) is listed as “completely blocked”.

Turning to `CS(=O)(=O)N1CCC(NC(=O)NC23CC4CC(CC(C4)C2)C3)CC1` [Compound 1, 1-adamantyl-3-(1-(methylsulfonyl)piperidin-4-yl)urea], the “percent relaxation of corpus cavernosum strip” value worked out at 15% in experiment [2] (1 μM of both Compound 1 and 14,15-EET, relative to SNP control strip); 22% in experiment [2] (10 μM of both Compound 1 and 14,15-EET, relative to SNP control strip). Also, in experiment [2] (Compound 1 alone, 1 μM or 10 μM, relative to SNP control strip), the “relaxation of corpus cavernosum strip” value is listed as “did not induce relaxation”.

With `CCCCc1ccc(N=CN)c(C)c1` [N′-(4-dutyl-2-methyl-phenyl)-foramidine], in experiment [1], the “phenylephrine (PE) induced contraction of the cavernosual strips” value is on record as “attenuated”.

With `CC(=O)N1CCC(NC(=O)NC23CC4CC(CC(C4)C2)C3)CC1` [Compound 3, 1-adamantyl-3-(1-acetylpiperidin-4-yl)urea], the “percent relaxation with 100 nM Ach” value with rat arteries [4] is 70%. Also, in the experiment with arteries from SHR (vehicle 65%), the “percent relaxation induced by 10 μM Ach” value worked out at 90%. Besides, the “percent relaxation induced by 100 nM SNP” value in the experiment with arteries from SHR (vehicle 70%) turned out to be 95%. Besides, in the experiment with rat arteries [5] (30 mg per day dose in drinking water for 2 weeks), the “response to Ach-induced relaxation after in vivo co-administration” value is reported as “significantly improved dose dependent response to Ach”.

As for `O=C(Nc1ccc(OC(F)(F)F)cc1)NC1CCN(C(=O)c2cccnc2)CC1` [Compound 2, 1-(1-nicotinoylpiperidin-4-yl)-3-(4-(trifluoromethoxy)phenyl)urea], the “percent relaxation with 100 nM Ach” value in the experiment with rat arteries [4] came out at 30%. In addition, the “percent relaxation of mesenteric arteries” value was found to be 5% in the experiment on rat mesenteric arteries [6] (10 μM of compound) and 60% in the experiment with rat mesenteric arteries [6] (100 μM of compound). Moreover, in the experiment on rat mesenteric arteries [3] (2-1000 μM, pre-contracted by 0.1-1.0 μM U46619 or 127 mM KCl, consistent between both), the “relaxation of pre-contracted mesenteric arteries” value is given as “dose dependent effect”. Further, in the experiment on rat arteries [5] (10 mg once a day by oral gavage for 2 weeks), the “response to Ach-induced relaxation after in vivo co-administration” value is on record as “significantly improved dose dependent response to Ach”.

The EC50 is the concentration that produces a half-maximal response.
